ChEMBL document CHEMBL3779893, “Identification of novel GLUT inhibitors” (Bioorg Med Chem Lett, 2016)
pIC50: −log10 of the molar value.

Legend:
[1] = target: T1, Solute carrier family 2, facilitated glucose transporter member 2 (Homo sapiens, UniProt P11168); assay: Inhibition of human GLUT2 expressed in CHO cells assessed as ATP production co-incubated with 30 mM fructose for 16 hrs by CellTiter-Glo assay in presence of oxidative phosphorylation inhibitor rotenone; assay type: cell-based
T1 sequence (P11168 whole entry): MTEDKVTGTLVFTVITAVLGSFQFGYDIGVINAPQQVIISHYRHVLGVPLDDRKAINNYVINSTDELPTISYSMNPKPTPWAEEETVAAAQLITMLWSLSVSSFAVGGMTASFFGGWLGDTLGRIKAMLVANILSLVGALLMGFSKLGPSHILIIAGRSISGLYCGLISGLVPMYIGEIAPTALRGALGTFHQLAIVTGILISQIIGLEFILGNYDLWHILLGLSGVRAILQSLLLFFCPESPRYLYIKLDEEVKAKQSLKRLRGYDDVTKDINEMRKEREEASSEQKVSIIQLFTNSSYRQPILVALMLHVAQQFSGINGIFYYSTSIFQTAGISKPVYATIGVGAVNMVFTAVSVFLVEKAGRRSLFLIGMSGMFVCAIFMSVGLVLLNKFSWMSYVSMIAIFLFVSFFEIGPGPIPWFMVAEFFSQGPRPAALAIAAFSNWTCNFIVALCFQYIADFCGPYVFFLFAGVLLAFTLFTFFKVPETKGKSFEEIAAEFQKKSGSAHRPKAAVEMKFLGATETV

[2] = target: T2, Solute carrier family 2, facilitated glucose transporter member 1 (Homo sapiens, UniProt P11166); assay: Inhibition of human GLUT1 expressed in DLD1 cells assessed as ATP production co-incubated with 100 mM glucose for 16 hrs by CellTiter-Glo assay in presence of oxidative phosphorylation inhibitor rotenone; assay type: cell-based, DLD-1
T2 sequence (P11166 whole entry): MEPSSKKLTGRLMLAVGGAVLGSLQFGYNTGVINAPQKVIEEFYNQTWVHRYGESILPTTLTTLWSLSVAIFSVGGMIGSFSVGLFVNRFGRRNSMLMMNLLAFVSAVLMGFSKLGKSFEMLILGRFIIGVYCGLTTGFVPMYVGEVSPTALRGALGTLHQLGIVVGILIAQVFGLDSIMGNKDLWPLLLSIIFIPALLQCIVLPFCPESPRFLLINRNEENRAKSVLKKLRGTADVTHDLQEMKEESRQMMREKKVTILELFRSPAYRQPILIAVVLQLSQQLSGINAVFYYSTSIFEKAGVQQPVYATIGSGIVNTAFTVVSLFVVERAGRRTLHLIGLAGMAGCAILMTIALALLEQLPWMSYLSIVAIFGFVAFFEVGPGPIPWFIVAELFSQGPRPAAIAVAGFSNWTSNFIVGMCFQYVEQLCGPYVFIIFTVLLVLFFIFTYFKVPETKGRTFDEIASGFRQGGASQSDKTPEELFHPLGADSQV

[3] = target: T3, Solute carrier family 2, facilitated glucose transporter member 3 (Homo sapiens, UniProt P11169); assay: Inhibition of human GLUT3 expressed in GLUT1 knock-out DLD1 cells assessed as ATP production co-incubated with 300 mM glucose for 16 hrs by CellTiter-Glo assay in presence of oxidative phosphorylation inhibitor rotenone; assay type: cell-based, DLD-1
T3 sequence (P11169 whole entry): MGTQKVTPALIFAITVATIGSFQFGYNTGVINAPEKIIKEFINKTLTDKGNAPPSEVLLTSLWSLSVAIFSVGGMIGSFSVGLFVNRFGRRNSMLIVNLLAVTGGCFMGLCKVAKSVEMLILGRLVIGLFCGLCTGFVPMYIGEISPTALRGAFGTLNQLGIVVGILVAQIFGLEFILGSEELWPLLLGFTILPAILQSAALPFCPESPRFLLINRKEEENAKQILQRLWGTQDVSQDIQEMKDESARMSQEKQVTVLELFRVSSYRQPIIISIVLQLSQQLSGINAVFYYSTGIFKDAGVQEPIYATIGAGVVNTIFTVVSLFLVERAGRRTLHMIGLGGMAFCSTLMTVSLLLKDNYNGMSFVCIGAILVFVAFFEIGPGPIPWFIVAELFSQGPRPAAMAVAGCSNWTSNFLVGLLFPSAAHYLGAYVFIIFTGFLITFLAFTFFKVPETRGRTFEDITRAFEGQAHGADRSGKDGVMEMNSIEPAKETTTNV

[4] = Intrinsic clearance in rat hepatocytes; assay type: ADME, cell-based, Hepatocyte; settings: read-out: CLH (converted)
[5] = Intrinsic clearance in human liver microsomes; assay type: ADME; settings: read-out: CLH (converted)

Row | SMILES | pIC50 [1] | pIC50 [2] | pIC50 [3] | CLint scaled [4] [mL/min/kg] | CLint scaled [5] [mL/min/kg]
1 | COc1ccccc1N1CCN(c2ncnc3c2cnn3-c2ccc(C)cc2)CC1 | 5.00 | 5.82 | 5.52 |  | 
2 | COc1ccccc1N1CCN(c2ncnc3c2cnn3-c2cccc(C)c2)CC1 | 5.00 | 7.30 | 7.02 |  | 
3 | COc1ccccc1N1CCN(c2ncnc3c2[nH]c(=O)n3-c2ccccc2)CC1 | < 5.00 | 7.28 | 6.20 |  | 
4 | COc1ccccc1N1C[C@H]2C[C@@H]1CN2c1ncnc2c1cnn2-c1ccccc1 | < 5.00 | < 5.00 | < 5.00 |  | 
5 | COc1ccc(C#N)cc1N1CCN(c2ncnc3c2cnn3-c2ccccc2)CC1 | < 5.00 | 7.70 | 7.30 |  | 
6 | COc1ccccc1N1CC2(C1)CN(c1ncnc3c1cnn3-c1ccccc1)C2 |  | 5.36 | 5.66 |  | 
7 | COc1ccccc1N1CCN(c2ncnc3c2cnn3-c2ccccc2OC)CC1 | 5.92 | 7.30 | 6.96 |  | 
8 | COc1ccc(F)cc1N1CCN(c2ncnc3c2cnn3-c2ccccc2)CC1 | < 5.00 | 9.00 | 8.00 | 43.3 | 6.17
9 | COc1ccccc1N1CCN(c2ncnc3c2cnn3-c2ccccn2)CC1 | 5.10 | 6.29 | 6.03 |  | 
10 | COc1ccncc1N1CCN(c2ncnc3c2cnn3-c2ccccc2)CC1 | 6.29 | 8.05 | 7.22 |  | 
11 | FC(F)(F)Oc1ccccc1N1CCN(c2ncnc3c2cnn3-c2ccccc2)CC1 | < 5.00 | < 5.00 | < 5.00 |  | 
12 | Fc1ccccc1N1CCN(c2ncnc3c2cnn3-c2ccccc2)CC1 | 5.95 | 6.57 | 6.17 |  | 
13 | COc1ccccc1N1CCN(c2ncnc3c2cnn3-c2cc(F)cc(F)c2)CC1 | < 5.00 | 8.10 | 7.05 |  | 
14 | COc1ccccc1N1CCN(c2ncnc3c2cnn3-c2cc(F)ccc2OC)CC1 | 6.06 | 7.52 | 6.49 |  | 
15 | COc1ccc(N2CCN(c3ncnc4c3cnn4-c3ccccc3)CC2)cc1 | 5.06 | 5.75 | 5.75 |  | 
16 | COc1ccc(-n2ncc3c(N4CCN(c5ccccc5OC)CC4)ncnc32)cn1 |  | 7.00 | 6.47 |  | 
17 | N#Cc1cccc(N2CCN(c3ncnc4c3cnn4-c3ccccc3)CC2)c1 | 6.66 | 7.41 | 7.16 |  | 
18 | COc1ccccc1N1CCN(c2ncnc3c2cnn3C(C)c2ccccc2)CC1 (stereo not given) | 5.68 | 6.39 | 6.02 |  | 
19 | COc1ccccc1N1C[C@@H]2C[C@H]1CN2c1ncnc2c1cnn2-c1ccccc1 | < 5.00 | 5.64 | 5.39 |  | 
20 | COc1ccccc1N1CCN(c2ccnc3c2cnn3-c2ccccc2)CC1 | 6.22 | 6.52 | 5.40 |  | 
21 | COc1ncccc1N1CCN(c2ncnc3c2cnn3-c2ccccc2)CC1 | 5.87 | 6.74 | 6.17 |  | 
22 | COc1ccccc1N1CCN(c2ncnc3c2cnn3-c2cccc(C#N)c2)CC1 |  | 7.48 | 6.46 |  | 
23 | COc1cccc(-n2ncc3c(N4CCN(c5ccccc5OC)CC4)ncnc32)c1 | 6.05 | 6.70 | 6.77 |  | 
24 | COc1ccccc1N1CCN(c2ncnc3c2ncn3-c2ccccc2)CC1 | 5.46 | 7.57 | 7.19 |  | 
25 | COc1ccccc1N1CCN(c2ncnc3c2cnn3-c2ccncc2)CC1 | 5.36 | 5.92 | 5.80 |  | 
26 | COc1cc(F)ccc1N1CCN(c2ncnc3c2cnn3-c2ccccc2)CC1 | < 5.00 | 8.00 | 7.40 |  | 
27 | OC1CCCCC1N1CCN(c2ncnc3c2cnn3-c2ccccc2)CC1 (stereo not given) | < 5.00 | < 5.00 | < 5.00 |  | 

Row | SMILES | pIC50 [1] | pIC50 [2] | pIC50 [3] | CLint scaled [4] [mL/min/kg] | CLint scaled [5] [mL/min/kg]
28 | N#Cc1ccccc1N1CCN(c2ncnc3c2cnn3-c2ccccc2)CC1 | 5.22 | 5.74 | 5.69 |  | 
29 | Oc1ccccc1N1CCN(c2ncnc3c2cnn3-c2ccccc2)CC1 | 7.22 | 8.15 | 7.22 |  | 
30 | COc1ccccc1N1CCN(c2ncnc3c2cnn3-c2ccc(F)cc2)CC1 | < 5.00 | 7.77 | 7.34 |  | 
31 | COc1c(F)cccc1N1CCN(c2ncnc3c2cnn3-c2ccccc2)CC1 | < 5.00 | 5.62 | 5.00 |  | 
32 | COc1cc(C#N)ccc1N1CCN(c2ncnc3c2cnn3-c2ccccc2)CC1 | 5.77 | 6.82 | 6.77 |  | 
33 | COc1ccccc1N1CCN(c2ncnc3c2cnn3-c2ccc(C#N)cc2)CC1 | < 5.00 | 7.77 | 6.70 |  | 
34 | COc1ccccc1N1CCC(c2ncnc3c2cnn3-c2ccccc2)CC1 |  | 6.33 | 5.92 |  | 
35 | COc1ccccc1N1CCN(c2ncnc3c2cnn3-c2ccccc2)CC1C (stereo not given) | 5.85 | 7.85 | 6.92 |  | 
36 | COc1ccc(C(N)=O)cc1N1CCN(c2ncnc3c2cnn3-c2ccccc2)CC1 | 7.00 | 8.30 | 7.43 |  | 
37 | COc1ccccc1N1CCN(c2ncnc3c2cnn3-c2ccccc2C)CC1 | 6.00 | 8.00 | 6.60 |  | 
38 | COc1ccccc1N1CCN(c2ncnc3c2nnn3-c2ccccc2)CC1 | 5.48 | 7.31 | 6.37 |  | 
39 | COc1c(C#N)cccc1N1CCN(c2ncnc3c2cnn3-c2ccccc2)CC1 | < 5.00 | 5.92 | 6.27 |  | 
40 | COc1ccccc1N1CCN(c2ncnc3c2cnn3-c2ncccc2F)CC1 | 5.15 | 7.10 |  |  | 
41 | FC(F)(F)c1ccccc1N1CCN(c2ncnc3c2cnn3-c2ccccc2)CC1 | < 5.00 | < 5.00 | < 5.00 |  | 
42 | COc1ccc(-n2ncc3c(N4CCN(c5ccccc5OC)CC4)ncnc32)cc1 | 5.59 | 6.64 | 6.77 |  | 
43 | COc1ccccc1N1CCN(c2ncnc3c2cnn3-c2ccccc2)C(C)C1 (stereo not given) | 5.60 | 6.92 | 6.32 |  | 
44 | COc1cccc(F)c1N1CCN(c2ncnc3c2cnn3-c2ccccc2)CC1 | 5.92 | 6.96 | 5.80 |  | 
45 | COc1ccccc1C1CCN(c2ncnc3c2cnn3-c2ccccc2)CC1 | < 5.00 | 5.72 | < 5.00 |  | 
46 | COc1ccccc1N1CCN(c2nccc3c2cnn3-c2ccccc2)CC1 | 5.30 | 5.40 | 5.70 |  | 
47 | COc1ccccc1N1CCN(c2ncnc3c2cnn3-c2cccnc2)CC1 | 5.22 | 6.12 | 5.82 |  | 
48 | COc1cccc(N2CCN(c3ncnc4c3cnn4-c3ccccc3)CC2)c1 | 5.83 | 6.74 | 6.49 |  | 
49 | COc1cccnc1N1CCN(c2ncnc3c2cnn3-c2ccccc2)CC1 | 6.02 | 7.22 | 7.15 |  | 
50 | COc1cnccc1N1CCN(c2ncnc3c2cnn3-c2ccccc2)CC1 |  | 6.64 | 5.82 |  | 
51 | COc1ccccc1N1CCN(c2nnnc3c2cnn3-c2ccccc2)CC1 | < 5.00 | < 5.00 | < 5.00 |  | 
52 | COc1ccccc1N1CCCN(c2ncnc3c2cnn3-c2ccccc2)CC1 | 7.68 | 8.40 | 8.10 |  | 
53 | Fc1cccc(N2CCN(c3ncnc4c3cnn4-c3ccccc3)CC2)c1 | 5.92 | 6.54 | 6.27 |  | 
